# Assay results from US10392398B2, “Inhibitors of Late SV40 Factor (LSF) as cancer chemotherapeutics” (TRUSTEES OF BOSTON UNIVERSITY, priority 2010, dated 2019).
# Where two headings read alike, the source gives them in different places.
# Legend:
# Type in all cases: cell-based
# NIH/3T3 cells = experiment: Cell proliferation assay (MTS), NIH/3T3; conditions: for GI50 / IC50: Mus musculus, NIH3T3; for IC50: Example 7, FIG. 8, read-out: growth inhibition of NIH/3T3 Cell Line IC50; for antiproliferative activity relative to comparator: against each cell line (NIH/3T3, HeLa, A549), in words
# Experimental: (§1) Cells were plated at 3×10^4 cells/mL, A549 and HeLa, and 1×10^4 cells/mL, NIH/3T3, in 96-well plates and incubated for 24 h to allow for cell adhesion. LSF-library compounds were dissolved in DMSO, serial diluted in appropriate medium and added to cells in triplicate (2 plates). DMSO was added to control wells at a final concentration of 1%. After 72 h incubation in the presence of compound, confluent cells were assayed for growth proliferation with CellTiter 96® AQueous One Solution Cell Proliferation Assay (MTS) (Promega) according to the manufacturer's protocol. Plates were read at 490 nm on a microplate reader, and IC50 values were determined as the percentage of compound-treated cell growth to control cell growth. HCC cells—one hour after plating HCC cells onto 96-well plates, compound or vehicle (DMSO) was added to the desired concentrations, keeping DMSO at 0.5%. At indicated time points, cell viability was assayed using the CellTiter 96® Non-Radioactive Cell Proliferation Assay (MTT) (Promega).
# (§2) QGY-7703 and A549 cells were cultured at 37° C. in 5% CO2 in DMEM (Dulbecco's modification of Eagle's Medium; Corning) supplemented with 10% Fetal Bovine Serum (FBS; Invitrogen). NIH-3T3 cells were cultured at 37° C. in 5% CO2 in DMEM supplemented with 10% Fetal Calf Serum (FCS; Atlanta Biologicals). For cell viability assays, 1,500 cells were seeded in 96-well plates and treated with FQI-34 or vehicle (DMSO) at appropriate concentrations (DMSO at 1%) after 20 hours. After 72-hour incubation with compound or vehicle, cell growth was assessed via the Promega CellTiter 96® AQueous One Solution Cell Proliferation Assay, a colorimetric method to determine the number of viable cells. 20 μL of the CellTiter 96® AQueous One Solution Reagent was added directly into cultured wells and incubated for one hour, after which the absorbance at 490 nm was read with a 96-well plate reader (Opys MR Microplate Reader). The CellTiter 96® AQueous One Solution contains an MTS tetrazolium compound which is bioreduced by cells into a colored formazan product that is soluble in tissue culture medium. The quantity of formazan product as measured by absorbance is directly proportional to the number of living cells in culture. GI50 values were determined from plots of the percentage of compound-treated cell growth to vehicle cell growth vs. compound concentration (GraphPad Prism; non-linear regression 4-parameter curve fit with variable slope).
# LSF = target: T1, LSF (Homo sapiens, UniProt Q12800); experiment: LSF-dependent luciferase reporter assay in NIH 3T3 cells; parameters: expressed in transfected cells; host or cells: NIH 3T3; conditions: for activity in the LSF luciferase reporter assay relative to comparator: in words; for IC50: NIH 3T3 cells, dual luciferase, ranges where few concentrations tested, read-out: IC50 (μM) LSF-dependent reporter assat NIH 3T3
# T1 sequence (Q12800 1-502): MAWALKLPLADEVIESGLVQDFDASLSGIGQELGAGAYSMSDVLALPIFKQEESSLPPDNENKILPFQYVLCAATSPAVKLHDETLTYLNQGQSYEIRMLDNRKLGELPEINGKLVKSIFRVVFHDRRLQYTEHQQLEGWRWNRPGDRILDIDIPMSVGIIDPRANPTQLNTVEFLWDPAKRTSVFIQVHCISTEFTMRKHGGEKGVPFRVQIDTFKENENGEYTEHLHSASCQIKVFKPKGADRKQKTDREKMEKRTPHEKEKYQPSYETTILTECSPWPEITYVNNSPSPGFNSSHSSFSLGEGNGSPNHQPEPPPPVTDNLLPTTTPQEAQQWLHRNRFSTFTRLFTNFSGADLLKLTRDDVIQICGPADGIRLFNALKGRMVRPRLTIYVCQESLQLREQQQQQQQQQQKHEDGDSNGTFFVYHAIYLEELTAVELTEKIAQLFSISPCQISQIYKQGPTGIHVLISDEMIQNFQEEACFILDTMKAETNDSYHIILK
# Experimental: NIH 3T3 cells were transfected with the expression construct pEF1α-LSF, a LSF expression vector^6,20; the reporter construct pGL3B-WT4E1b, a firefly luciferase reporter vector driven by LSF^12; phRL-TK, a control renilla luciferase reporter vector; and pEFGP, essentially as previously described^12. Five hours after transfection, either vehicle (DMSO) or FQI compound was added, keeping DMSO at 0.5%. Cell extracts were harvested 36 hours post-transfection and firefly and renilla luciferase activities measured via a dual luciferase assay (Promega). Five μl of extract was mixed with 30 μl of luciferase assay reagent (Promega), and luminescence measured for 10 seconds using a 20/20n luminometer (Turner Biosystems). Subsequently, 30 μl of Stop & Glo reagent (Promega) was added, and luminescence also measured for 10 seconds. LSF transactivation activity is given as relative luciferase activity, the ratio of firefly to renilla activities.
# NIH-3T3 cells were cultured at 37° C. in 5% CO2 in DMEM (Dulbecco's modification of Eagle's Medium; Corning) supplemented with 10% FCS (FCS; Atlanta Biologicals). Approximately 24 hours prior to transfection, 200,000 cells were plated in 35 mm dishes. After 24 hours, cells were ˜70% confluent, and were transfected for 5 hours with pEF1α-LSF, the reporter construct pGL3B-WT4E1b, phRLTK, and pEFGP (Grant, T. J. et al. Antiproliferative small-molecule inhibitors of transcription factor LSF reveal oncogene addiction to LSF in hepatocellular carcinoma. PNAS (2012), 109, 1-6). Vehicle (DMSO) or FQI-34 was then added, keeping the DMSO at 0.5%. Cell extracts were harvested 36 h post-transfection, and firefly and renilla luciferase activities were measured via a dual luciferase assay (Promega Dual-Luciferase Reporter Assay System). Relative luciferase activity represents firefly luciferase activity normalized to that of renilla luciferase in each extract. IC50 values were determined from plots of normalized luciferase activity vs. compound concentration (Prism GraphPad; non-linear regression 4-parameter curve fit with variable slope).
# HeLa cells = experiment: Cell proliferation assay (MTS), HeLa; conditions: Homo sapiens; for IC50: HeLa, Example 7, FIG. 8, read-out: growth inhibition of HeLa Cell Line IC50; for GI50: 72 h, MTS
# Experimental: as §1
# A549 cells = experiment: Cell proliferation assay (MTS), A549; conditions: Homo sapiens; for GI50: 72 h, MTS, read-out: GI50 (μM) A549; for IC50: Example 7, FIG. 8, read-out: growth inhibition of A549 Cell Line IC50
# Experimental: as §1, §2
# QGY-7703 HCC cells = experiment: HCC cell viability (MTT), QGY-7703; conditions: in words
# Experimental: as §1
# cancer cell lines = experiment: Inhibition of growth of cancer cell lines in vitro (FIGS. 9 and 10); conditions: 0.2-33 μM
# Experimental: FIG. 9A-9K show the results of inhibition of growth of cancer cell lines in vitro by FQI1 (Formula (IV)). The effect of inhibition of cell growth (represented as a fraction of 1) of increasing concentrations of FQI1 between 0.2-33 μM is shown.
# The effect of inhibition of cell growth (represented as a fraction of 1) of increasing concentrations of FQI2 between 0.2-33 μM is shown.
# QGY-7703 cells = experiment: Cell viability GI50 (MTS), QGY-7703; conditions: Homo sapiens
# Experimental: as §2
# [1] = 72 h, MTS, read-out: GI50 (μM) NIH/3T3
# [2] = Table 3, read-out: GI50 (μM) NIH 3T3
IC50 (HeLa cells),IC50 (A549 cells),IC50 (LSF),SMILES,IC50 (NIH/3T3 cells),GI50 (NIH/3T3 cells; [2]),also measured
8 ± 1 µM,18 ± 3.2 µM,,CCOc1ccccc1[C@@H]1CC(=O)Nc2cc3c(cc21)OCO3 [(R)-FQI1],45 ± 6.9 µM,,"GI50 (NIH/3T3 cells; [1]): 45 ± 7 µM; times less active than FQI1 in cell proliferation assays (NIH/3T3 cells; NIH/3T3, HeLa and A549): ~10 times; activity in the LSF luciferase reporter assay relative to comparator (LSF): much less active than the racemate; GI50 (HeLa cells): 8 ± 1 µM; GI50 (A549 cells): 18 ± 3.2 µM"
0.3 ± 0.025 µM,3 ± 1.3 µM,0.8 µM,CCOc1ccccc1[C@H]1CC(=O)Nc2cc3c(cc21)OCO3 [(S)-FQI1],1.1 ± 0.45 µM,1.1 ± 0.4 µM,GI50 (NIH/3T3 cells; [1]): 1.1 ± 0.41 µM; antiproliferative activity relative to comparator (NIH/3T3 cells): at least twice as active; fold more active than the racemate in the luciferase reporter assay (LSF; versus racemic FQI1): approximately 3 fold; GI50 (HeLa cells): 0.3 ± 0.03 µM; GI50 (A549 cells): 3 ± 1.3 µM
,,0.8 µM,"CCOc1ccccc1-c1cc(=O)[nH]c2cc3c(cc12)OCO3 [FQI2, 8-(2-ethoxyphenyl)-[1,3]dioxolo[4,5-g]quinolin-6(5H)-one]",,0.71 ± 0.13 µM,"cellular proliferation of QGY-7703 cells (MTT) (QGY-7703 HCC cells): decreased overall cellular proliferation; GI50 (NIH/3T3 cells; [1]): 0.71 ± 0.13 µM; antiproliferative activity relative to comparator (NIH/3T3 cells): as active as (S)-FQI1; activity in the LSF luciferase reporter assay relative to comparator (LSF): as effective as the (S)-enantiomer; growth of a variety of cancers, in vitro cell assay (cancer cell lines): inhibit the growth of a variety of cancers; GI50 (HeLa cells): 0.4 ± 0.04 µM; GI50 (A549 cells): 1.9 ± 0.9 µM"
6.6 ± 1.2 µM,> 300 µM,,"CCOc1ccccc1C1CC(=O)Nc2cc3c(cc21)OC(F)(F)O3 (stereo not drawn) [FQI9, 8-(2-ethoxyphenyl)-2,2-difluoro-7,8-dihydro-[1,3]dioxolo[4,5-g]quinolin-6(5H)-one]",30 ± 3.5 µM,,
> 200 µM,> 200 µM,,"CCOc1ccccc1C1CC(=O)Nc2cc(OC)c(OC)c(OC)c21 (stereo not drawn) [FQI11, 4-(2-ethoxyphenyl)-5,6,7-trimethoxy-3,4-dihydroquinolin-2(1H)-one]",> 200 µM,,
,,3 to 4 µM,"COc1ccccc1C1CC(=O)Nc2cc3c(cc21)OCO3 (stereo not drawn) [FQI12, 8-(2-methoxyphenyl)-7,8-dihydro-[1,3]dioxolo[4,5-g]quinolin-6(5H)-one]",,4 ± 0.8 µM,
8.8 ± 1.4 µM,> 300 µM,,"COc1ccccc1C1CC(=O)Nc2cc3c(cc21)OC(F)(F)O3 (stereo not drawn) [FQI13, 2,2-difluoro-8-(2-methoxyphenyl)-7,8-dihydro-[1,3]dioxolo[4,5-g]quinolin-6(5H)-one]",72 ± 9.8 µM,,
,> 10000 µM,,"COc1ccc2c(c1)C(c1ccccc1OC)CC(=O)N2 (stereo not drawn) [FQI14, 6-methoxy-4-(2-methoxyphenyl)-3,4-dihydroquinolin-2(1H)-one]",,,
> 200 µM,> 200 µM,,"COc1ccccc1C1CC(=O)Nc2cc(OC)c(OC)c(OC)c21 (stereo not drawn) [FQI15, 5,6,7-trimethoxy-4-(2-methoxyphenyl)-3,4-dihydroquinolin-2(1H)-one]",> 200 µM,,
,,2 to 4 µM,"CCCOc1ccccc1C1CC(=O)Nc2cc3c(cc21)OCO3 (stereo not drawn) [FQI16, 8-(2-propoxyphenyl)-7,8-dihydro-[1,3]dioxolo[4,5-g]quinolin-6(5H)-one]",,2.3 ± 0.5 µM,
> 200 µM,> 200 µM,,"COc1ccc(C2CC(=O)Nc3cc4c(cc32)OCO4)cc1 (stereo not drawn) [FQI19, 8-(4-methoxyphenyl)-7,8-dihydro-[1,3]dioxolo[4,5-g]quinolin-6(5H)-one]",> 200 µM,,
67 ± 9.9 µM,> 200 µM,,"COc1ccc(C2CC(=O)Nc3ccc(OC)cc32)cc1 (stereo not drawn) [FQI21, 6-methoxy-4-(4-methoxyphenyl)-3,4-dihydroquinolin-2(1H)-one]",> 200 µM,,
,,,CCOCCOCCOCCCc1ccc(C2CC(=O)Nc3cc4c(cc32)OCO4)c(OCC)c1 (stereo not drawn) [PEG-FQI],,,"GI50 (QGY-7703 cells; Table 5, read-out: QGY-7703 GI50): > 10 µM; GI50 (QGY-7703 cells; Table 8, read-out: QGY-7703 GI50): > 10 µM"

SMILES,IC50 (HeLa cells),IC50 (A549 cells),IC50 (LSF),IC50 (NIH/3T3 cells),GI50 (NIH/3T3 cells; [2]),also measured
"CCCCOc1ccccc1C1CC(=O)Nc2cc3c(cc21)OCO3 (stereo not drawn) [FQI3, 8-(2-Butoxyphenyl)-7,8-dihydro-[1,3]dioxolo[4,5-g]quinolin-6(5H)-one]",,,3 to 5 µM,,2.6 ± 0.5 µM,
